Measurements: US20210269824A1, “VIRAL VECTOR FOR TREATING AUTOIMMUNE DISEASE AND DIABETES AND CONSTRUCTION METHOD AND APPLICATION THEREOF” (Guangzhou Huazhen Pharmaceutical Co., Ltd., priority 2017, published 2021)

System: peripheral blood CD4 T-cells of patients with type 1 diabetes
Assay: Differentiation of peripheral blood CD4 T-cells (Th1, Th2, Th17, Treg) after in vitro treatment, flow cytometry
Format: cell-based, human
Conditions: 100 μM, 24 h in vitro, lymphocytes of type 1 diabetes patients
Description: (1) 5 ml peripheral blood was extracted from patients and normal humans separately, diluted twice with PBS of pH 7.2, and then mixed with lymphocyte separation solution Lymphoprep (Axis-Shield, Norway), centrifuged at 3500 rpm for 20 min, then the lymphocytes were taken out and cultured in RPMI1640 medium (purchased from Gibco) to obtain the cultured lymphocytes. The above cultured lymphocytes were treated in vitro with DHA (docosahexaenoic acid) at a final concentration of 100 μM, EPA (eicosapentaenoic acid) at a final concentration of 100 μM, and AA (arachidonic acid) at a final concentration of 100 μM for 24 h, respectively. After treating, changes in intracellular cytokines of CD4 T-cells in the above lymphocytes were detected. (The above DHA, EPA and AA are all purchased from Sigma).
(2) labeling of intracellular cytokines of CD4 T-cells: The lymphocytes (number up to 1×10^5) from patients and normal humans in the above steps were placed to different marked tubes. Labeled fluorescent monoclonal antibodies CD3 (0.1 μg) and CD8 (0.1 μg) were added into each tube. Then 1 ml paraformaldehyde having a concentration of 4% by weight was added into each tube, mixed well and incubated at room temperature (20° C.-30° C.) for 20 min. 1 ml intraprep permeabilization reagent, i.e. 0.5% saponin, was added, incubated at room temperature (20° C.-30° C.) for 30 min, then centrifuged for 5 min at 300 g, 4° C. to obtain a supernatant and a precipitate. The supernatant was removed, and 80 μl 0.5% saponin was added to re-suspend the precipitate to obtain suspensions. The obtained suspensions were labeled respectively with IFN-γ fluorescent monoclonal antibody (0.1 μg), IL-17 fluorescent monoclonal antibody (0.1 μg), IL-4 fluorescent monoclonal antibody (0.1 μg), and Foxp3 fluorescent monoclonal antibody (0.1 μg), and incubated in dark place at 4° C. for 1 h (for the suspension labeled with Foxp3 fluorescent monoclonal antibody, incubation and rupture took 8 h). The labeled cells were washed three times with 0.5% saponin, centrifuged for 5 min at 300 g, 4° C. to obtain a supernatant and a precipitate. The supernatant was removed, and the precipitate was fixed with paraformaldehyde having a mass concentration of 1%. After 24 h, percentages of Th1, Th2, Th17 and Treg cells were analyzed with a flow cytometer Accuri-C6. The antibodies and instruments used in the above steps were all purchased from BD Bioscience.
The CON in FIG. 2 represents a control group, i.e. the lymphocytes of peripheral blood from normal humans not treated with DHA, EPA or AA. The CON in FIG. 3 represents a control group, i.e. the lymphocytes of peripheral blood from patients not treated with DHA, EPA, or AA. In FIG. 2, figures A, B, C, D, and E show percentages of Th1, Th2, Th1/Th2, Th17 and Treg cells in peripheral blood CD4 T-cells of normal subjects, respectively, and figures F, G, H, I and J show percentages of Th1, Th2, Th1/Th2, Th17 and Treg cells in peripheral blood CD4 T-cells of patients, respectively. In FIG. 3, figures A, B, C, and D show percentages of transcription factors T-bet, GATA3, RORγT, and Foxp3 in peripheral blood CD4 T-cells of patients, respectively. As shown in FIGS. 2-3, in peripheral blood CD4 T-cells of patients with type 1 diabetes treated with DHA, EPA and AA respectively, the percentages of Th1 and Th17 cells decreased, and the percentages of Th2 and Treg cells increased, and the ratio of Th1/Th2 and the ratio of T17/Treg were rebalanced.

CCCCC/C=C\C/C=C\C/C=C\C/C=C\CCCC(=O)O [AA, arachidonic acid]
ratio of T17/Treg: rebalanced
ratio of Th1/Th2: rebalanced
percentage of Th1 cells (vs untreated): decreased
percentage of Th2 cells (vs untreated): increased
percentage of Th17 cells (vs untreated): decreased
percentage of Treg cells (vs untreated): increased
